Blank lines part the entries; values can stand above or below the compound they belong to.
Experiments:
[1] = tested on: Arabidopsis thaliana (K31-4-2) transformed with a Kasalath-derived CYP72A31 gene; experiment: Drug sensitivity test on drug-containing MS medium, Arabidopsis thaliana transformed with Kasalath-derived CYP72A31 gene; assay type: in vivo; settings: for Rate of emerging of true leaf (%): day 14 after seeding
Procedure: (§1) A bag of mixed salts for Murashige-Skoog (MS) medium (manufactured by Wako Pure Chemical Industries, Ltd.) 20 g of sucrose, 3 mg of thiamin hydrochloride, 5 mg of nicotinic acid, and 0.5 mg of pyridoxine hydrochloride were dissolved in distilled water, and filled up to 1 L with distilled water. After pH adjustment to 5.8 to 6.3 with 1 M KOH, 3 g of Gelrite was added to the solution, and dissolved using a microwave. After that, the mixture was autoclaved to prepare a sterile MS medium. A test drug was added to this sterile MS medium so as to make a final concentration of 1.3, 4.1, 12, 37, 110, or 330 nM. Arabidopsis thaliana from a sterilized seed was seeded in the drug-containing MS medium, and cultivated at 22° C. for 12 to 14 days in a continuous light period.
(§2) Note that the drugs used in this Example were bispyribac-sodium, pyrithiobac-sodium, pyriminobac, bensulfuron-methyl, penoxsulam, pyrazosulfuron-ethyl, amidosulfuron, imazosulfuron, nicosulfuron, and propyrisulfuron.

[2] = tested on: non-transformed Arabidopsis thaliana (NT); experiment: Drug sensitivity test on drug-containing MS medium, non-transformed Arabidopsis thaliana; assay type: in vivo
Procedure: as §1, §2

[3] = tested on: CYP72A31-overexpressing rice (K31-4-6-2); experiment: Drug sensitivity test on gellan gum medium, CYP72A31-overexpressing rice; assay type: in vivo, Oryza sativa; settings: for CK ratio (%): plant height compared with drug-free medium
Procedure: (§3) Next, 1.6 g of Hoagland's mix (Sigma-Aldrich Corporation) and 3 g of Gelrite (Wako Pure Chemical Industries, Ltd.) were suspended in 1 L of distilled water. Then, the mixture was dissolved and heated in a microwave. After that, the mixture was cooled to 50 to 60 degree C., and BS was added at a final concentration of 1 μM. This mixture was dispensed into 30-mL tubular bottles at 15 mL to prepare a gellan gum medium. Next, CSSL rice paddies were soaked in 0.5% sodium hypochlorite for about 20 minutes, and were then washed well with water. These paddies were soaked in distilled water, and kept at 27 degree C. for 3 to 5 days for germination. Germinating seeds were softly planted in sprout-side up on the gellan gum medium. These samples, together with a beaker filled with distilled water, were placed in a transparent case, which was then covered with a clear-plastic wrap. These samples were grown at 27 degree C. under fluorescent light illumination (14 hours of a light period and 10 hours of a dark period) for 7 to 9 days.
(§4) According to the method of Example 1, a gellan gum medium containing a test drug at a concentration of 0.01, 0.1, 1, or 10 μM was prepared. Rice seeds were sterilized, germinated, seeded in the medium, and cultivated.

[4] = tested on: Wild-type rice (Nipponbare); experiment: Drug sensitivity test on gellan gum medium, wild-type rice; assay type: in vivo, Oryza sativa; settings: plant height compared with drug-free medium
Procedure: as §3, §4

[5] = K31-4-2, Tables 2 and 3, FIGS. 20 to 24
[6] = maximum drug concentration for 80% or more emerging of true leaves, K31-4-2 / NT, day 14
[7] = drug 1.3 nM, day 14 after seeding
[8] = drug 4.1 nM, day 14 after seeding
[9] = drug 12 nM, day 14 after seeding
[10] = drug 37 nM, day 14 after seeding
[11] = drug 110 nM, day 14 after seeding
[12] = drug 330 nM, day 14 after seeding

Structure (SMILES): CON=C(C)c1cccc(Oc2nc(OC)cc(OC)n2)c1C(=O)O [Pyriminobac, pyriminobac]
Resistance of transformed Arabidopsis thaliana to the drug [1, 5]: exhibited resistance
Rate of emerging of true leaf (%) ([1]; K31-4-2, drug 1.3 nM): 100%
Rate of emerging of true leaf (%) ([1]; K31-4-2, drug 4.1 nM): 100%
Rate of emerging of true leaf (%) ([1]; K31-4-2, drug 12 nM): 100%
Rate of emerging of true leaf (%) ([1]; K31-4-2, drug 37 nM): 100%
Rate of emerging of true leaf (%) ([1]; K31-4-2, drug 110 nM): 100%
Rate of emerging of true leaf (%) ([1]; K31-4-2, drug 330 nM): 50%
Ratio of sensitivity [1, 6]: 27
Rate of emerging of true leaf (%) [2, 7]: 100%
Rate of emerging of true leaf (%) [2, 8]: 90%
Rate of emerging of true leaf (%) [2, 9]: 10%
Rate of emerging of true leaf (%) [2, 10]: 0%
Rate of emerging of true leaf (%) [2, 11]: 0%
Rate of emerging of true leaf (%) [2, 12]: 0%

Structure (SMILES): COc1cc(OC)nc(NC(=O)NS(=O)(=O)c2ncccc2C(=O)N(C)C)n1 [Nicosulfuron, nicosulfuron]
Resistance of transformed Arabidopsis thaliana to the drug [1, 5]: exhibited resistance
Rate of emerging of true leaf (%) ([1]; K31-4-2, drug 1.3 nM): 100%
Rate of emerging of true leaf (%) ([1]; K31-4-2, drug 4.1 nM): 100%
Rate of emerging of true leaf (%) ([1]; K31-4-2, drug 12 nM): 100%
Rate of emerging of true leaf (%) ([1]; K31-4-2, drug 37 nM): 100%
Rate of emerging of true leaf (%) ([1]; K31-4-2, drug 110 nM): 100%
Rate of emerging of true leaf (%) ([1]; K31-4-2, drug 330 nM): 10%
Ratio of sensitivity [1, 6]: 27
Rate of emerging of true leaf (%) [2, 7]: 100%
Rate of emerging of true leaf (%) [2, 8]: 100%
Rate of emerging of true leaf (%) [2, 9]: 0%
Rate of emerging of true leaf (%) [2, 10]: 0%
Rate of emerging of true leaf (%) [2, 11]: 0%
Rate of emerging of true leaf (%) [2, 12]: 0%

Structure (SMILES): COC(=O)c1ccccc1CS(=O)(=O)NC(=O)Nc1nc(OC)cc(OC)n1 [Bensulfuron-methyl, bensulfuron-methyl]
Ratio of sensitivity ([1]; in vivo): >28
Resistance of transformed Arabidopsis thaliana to the drug ([1]; in vivo): exhibited resistance
Rate of emerging of true leaf (%) [2, 7]: 30%
Rate of emerging of true leaf (%) [2, 8]: 0%
Rate of emerging of true leaf (%) [2, 9]: 0%
Rate of emerging of true leaf (%) [2, 10]: 0%
Rate of emerging of true leaf (%) [2, 11]: 0%
Rate of emerging of true leaf (%) [2, 12]: 0%

Structure (SMILES): CCOC(=O)c1cnn(C)c1S(=O)(=O)NC(=O)Nc1nc(OC)cc(OC)n1 [Pyrazosulfuron-ethyl, pyrazosulfuron-ethyl]
Resistance of transformed Arabidopsis thaliana to the drug [1, 5]: exhibited resistance
Rate of emerging of true leaf (%) ([1]; K31-4-2, drug 1.3 nM): 100%
Rate of emerging of true leaf (%) ([1]; K31-4-2, drug 4.1 nM): 100%
Rate of emerging of true leaf (%) ([1]; K31-4-2, drug 12 nM): 90%
Rate of emerging of true leaf (%) ([1]; K31-4-2, drug 37 nM): 0%
Rate of emerging of true leaf (%) ([1]; K31-4-2, drug 110 nM): 0%
Rate of emerging of true leaf (%) ([1]; K31-4-2, drug 330 nM): 0%
Ratio of sensitivity [1, 6]: >9
Rate of emerging of true leaf (%) [2, 7]: 0%
Rate of emerging of true leaf (%) [2, 8]: 0%
Rate of emerging of true leaf (%) [2, 9]: 0%
Rate of emerging of true leaf (%) [2, 10]: 0%
Rate of emerging of true leaf (%) [2, 11]: 0%
Rate of emerging of true leaf (%) [2, 12]: 0%

Ratio of sensitivity ([1]; in vivo): 3
Resistance of transformed Arabidopsis thaliana to the drug ([1]; in vivo): exhibited resistance
Structure (SMILES): COc1cc(OC)nc(NC(=O)NS(=O)(=O)N(C)S(C)(=O)=O)n1 [Amidosulfuron, amidosulfuron]
Rate of emerging of true leaf (%) [2, 7]: 100%
Rate of emerging of true leaf (%) [2, 8]: 100%
Rate of emerging of true leaf (%) [2, 9]: 0%
Rate of emerging of true leaf (%) [2, 10]: 0%
Rate of emerging of true leaf (%) [2, 11]: 0%
Rate of emerging of true leaf (%) [2, 12]: 0%

Structure (SMILES): CCCc1ccc2nc(Cl)c(S(=O)(=O)NC(=O)Nc3nc(OC)cc(OC)n3)n2n1 [Propyrisulfuron, propyrisulfuron]
Resistance of transformed Arabidopsis thaliana to the drug [1, 5]: exhibited resistance
Rate of emerging of true leaf (%) ([1]; K31-4-2, drug 1.3 nM): 100%
Rate of emerging of true leaf (%) ([1]; K31-4-2, drug 4.1 nM): 100%
Rate of emerging of true leaf (%) ([1]; K31-4-2, drug 12 nM): 100%
Rate of emerging of true leaf (%) ([1]; K31-4-2, drug 37 nM): 70%
Rate of emerging of true leaf (%) ([1]; K31-4-2, drug 110 nM): 0%
Rate of emerging of true leaf (%) ([1]; K31-4-2, drug 330 nM): 0%
Ratio of sensitivity [1, 6]: >9
Rate of emerging of true leaf (%) [2, 7]: 10%
Rate of emerging of true leaf (%) [2, 8]: 0%
Rate of emerging of true leaf (%) [2, 9]: 0%
Rate of emerging of true leaf (%) [2, 10]: 0%
Rate of emerging of true leaf (%) [2, 11]: 0%
Rate of emerging of true leaf (%) [2, 12]: 0%

Structure (SMILES): COc1cc(OC)nc(Sc2cccc(Cl)c2C(=O)O)n1 [Pyrithiobac-sodium, pyrithiobac-sodium]
Ratio of sensitivity ([1]; in vivo): 3
Resistance of transformed Arabidopsis thaliana to the drug ([1]; in vivo): exhibited resistance
Rate of emerging of true leaf (%) ([2]; drug 1.3 nM, day 12 after seeding): 44%
Rate of emerging of true leaf (%) ([2]; drug 4.1 nM, day 12 after seeding): 44%
Rate of emerging of true leaf (%) ([2]; drug 12 nM, day 12 after seeding): 0%
Rate of emerging of true leaf (%) ([2]; drug 37 nM, day 12 after seeding): 0%
Rate of emerging of true leaf (%) ([2]; drug 110 nM, day 12 after seeding): 0%
Rate of emerging of true leaf (%) ([2]; drug 330 nM, day 12 after seeding): 0%

Structure (SMILES): COc1cc(OC)nc(NC(=O)NS(=O)(=O)c2c(Cl)nc3ccccn23)n1 [Imazosulfuron, imazosulfuron]
Resistance of transformed Arabidopsis thaliana to the drug [1, 5]: exhibited resistance
Rate of emerging of true leaf (%) ([1]; K31-4-2, drug 1.3 nM): 100%
Rate of emerging of true leaf (%) ([1]; K31-4-2, drug 4.1 nM): 100%
Rate of emerging of true leaf (%) ([1]; K31-4-2, drug 12 nM): 100%
Rate of emerging of true leaf (%) ([1]; K31-4-2, drug 37 nM): 100%
Rate of emerging of true leaf (%) ([1]; K31-4-2, drug 110 nM): 90%
Rate of emerging of true leaf (%) ([1]; K31-4-2, drug 330 nM): 0%
Ratio of sensitivity [1, 6]: >85
Rate of emerging of true leaf (%) [2, 7]: 40%
Rate of emerging of true leaf (%) [2, 8]: 10%
Rate of emerging of true leaf (%) [2, 9]: 0%
Rate of emerging of true leaf (%) [2, 10]: 0%
Rate of emerging of true leaf (%) [2, 11]: 0%
Rate of emerging of true leaf (%) [2, 12]: 0%

Structure (SMILES): COc1cnc(OC)n2nc(NS(=O)(=O)c3c(OCC(F)F)cccc3C(F)(F)F)nc12 [Penoxsulam, penoxsulam]
Ratio of sensitivity ([1]; in vivo): >254
Resistance of transformed Arabidopsis thaliana to the drug ([1]; in vivo): exhibited resistance
Rate of emerging of true leaf (%) [2, 7]: 50%
Rate of emerging of true leaf (%) [2, 8]: 10%
Rate of emerging of true leaf (%) [2, 9]: 0%
Rate of emerging of true leaf (%) [2, 10]: 0%
Rate of emerging of true leaf (%) [2, 11]: 0%
Rate of emerging of true leaf (%) [2, 12]: 0%

Structure (SMILES): CCc1cc(C)cc(CC)c1-c1c(OC(=O)C(C)(C)C)n2n(c1=O)CCOCC2 [Pinoxaden, pinoxaden]
Resistance of transformed rice to the drug ([3]; Table 4 and FIG. 25): exhibited resistance
Ratio of sensitivity ([3]; maximum drug concentration for CK ratio of 40% or more, K31-4-6-2 / wild-type rice): 10
CK ratio (%) ([3]; K31-4-6-2, drug 0.01 μM): 95%
CK ratio (%) ([3]; K31-4-6-2, drug 0.1 μM): 48%
CK ratio (%) ([3]; K31-4-6-2, drug 1 μM): 9%
CK ratio (%) ([3]; K31-4-6-2, drug 10 μM): 3%
CK ratio (%) ([4]; drug 0.01 μM): 59%
CK ratio (%) ([4]; drug 0.1 μM): 3%
CK ratio (%) ([4]; drug 1 μM): 3%
CK ratio (%) ([4]; drug 10 μM): 3%

Reference: patent US10000765B2, “Gene encoding cytochrome P450, and use thereof” (NATIONAL INSTITUTE OF AGROBIOLOGICAL SCIENCES, priority 2011, dated 2018)
